Laboratory results taken from the supplement of paper PMC11451515.

Test system: P12-Ichikawa
Test: cell viability relative to DMSO control; higher = less cytotoxic
Details: 48 h
Outline: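 Viability is a per-plate percentage relative to DMSO wells, with cell-free wells as background. CellTiter-Glo One luminescence was read after 48 h at 37°C on 1536-well plates (5 μl) of NOMO1 or SEM (500 cells/well) or P12-Ichikawa (1000 cells/well) leukemia cells. The cells had been adapted for at least four passages in each medium and pin-dosed with library compounds in DMSO from 47 μM to 0.79 nM in 11 threefold steps.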

[1] = HPLM + 10% dialyzed FBS, 0.000781 µM
[2] = HPLM + 10% dialyzed FBS, 0.00234 µM
[3] = HPLM + 10% dialyzed FBS, 0.00702 µM
[4] = HPLM + 10% dialyzed FBS, 0.0211 µM
[5] = HPLM + 10% dialyzed FBS, 0.0632 µM
[6] = HPLM + 10% dialyzed FBS, 0.19 µM
[7] = HPLM + 10% dialyzed FBS, 0.569 µM
[8] = HPLM + 10% dialyzed FBS, 1.71 µM
[9] = HPLM + 10% dialyzed FBS, 5.12 µM
[10] = HPLM + 10% dialyzed FBS, 15.4 µM
[11] = HPLM + 10% dialyzed FBS, 46.1 µM
[12] = RPMI 5 mM glucose + 10% FBS, 0.000781 µM
[13] = RPMI 5 mM glucose + 10% FBS, 0.00234 µM
[14] = RPMI 5 mM glucose + 10% FBS, 0.00702 µM
[15] = RPMI 5 mM glucose + 10% FBS, 0.0211 µM
[16] = RPMI 5 mM glucose + 10% FBS, 0.0632 µM
[17] = RPMI 5 mM glucose + 10% FBS, 0.19 µM
[18] = RPMI 5 mM glucose + 10% FBS, 0.569 µM
[19] = RPMI 5 mM glucose + 10% FBS, 1.71 µM
[20] = RPMI 5 mM glucose + 10% FBS, 5.12 µM
[21] = RPMI 5 mM glucose + 10% FBS, 15.4 µM
[22] = RPMI 5 mM glucose + 10% FBS, 46.1 µM
[23] = RPMI 5 mM glucose + 10% dialyzed FBS, 0.000781 µM
[24] = RPMI 5 mM glucose + 10% dialyzed FBS, 0.00234 µM
[25] = RPMI 5 mM glucose + 10% dialyzed FBS, 0.00702 µM
[26] = RPMI 5 mM glucose + 10% dialyzed FBS, 0.0211 µM
[27] = RPMI 5 mM glucose + 10% dialyzed FBS, 0.0632 µM
[28] = RPMI 5 mM glucose + 10% dialyzed FBS, 0.19 µM
[29] = RPMI 5 mM glucose + 10% dialyzed FBS, 0.569 µM
[30] = RPMI 5 mM glucose + 10% dialyzed FBS, 1.71 µM
[31] = RPMI 5 mM glucose + 10% dialyzed FBS, 5.12 µM
[32] = RPMI 5 mM glucose + 10% dialyzed FBS, 15.4 µM
[33] = RPMI 5 mM glucose + 10% dialyzed FBS, 46.1 µM

| Structure (SMILES) | cell viability [1] [%] | cell viability [2] [%] | cell viability [3] [%] | cell viability [4] [%] | cell viability [5] [%] | cell viability [6] [%] | cell viability [7] [%] | cell viability [8] [%] | cell viability [9] [%] | cell viability [10] [%] | cell viability [11] [%] | cell viability [12] [%] | cell viability [13] [%] | cell viability [14] [%] | cell viability [15] [%] | cell viability [16] [%] | cell viability [17] [%] | cell viability [18] [%] | cell viability [19] [%] | cell viability [20] [%] | cell viability [21] [%] | cell viability [22] [%] | cell viability [23] [%] | cell viability [24] [%] | cell viability [25] [%] | cell viability [26] [%] | cell viability [27] [%] | cell viability [28] [%] | cell viability [29] [%] | cell viability [30] [%] | cell viability [31] [%] | cell viability [32] [%] | cell viability [33] [%] |
| --- | --- | --- | --- | --- | --- | --- | --- | --- | --- | --- | --- | --- | --- | --- | --- | --- | --- | --- | --- | --- | --- | --- | --- | --- | --- | --- | --- | --- | --- | --- | --- | --- | --- |
| CNc1nccc(-c2cccnc2Oc2cc(C(=O)Nc3cccc(C(F)(F)F)c3)ccc2C)n1 | 105 | 111 | 111 | 113 | 106 | 122 | 118 | 123 | 117 | 91 | 105 | 112 | 113 | 112 | 119 | 119 | 121 | 115 | 127 | 119 | 82.8 | 103 | 105 | 101 | 104 | 114 | 112 | 110 | 112 | 120 | 111 | 90.7 | 103 |
| O=C(NC[C@H](O)CO)c1ccncc1Nc1ccc(I)cc1F | 100 | 112 | 71.4 | 113 | 107 | 105 | 102 | 102 | 97.5 | 91.4 | 87.5 | 101 | 118 | 66.3 | 106 | 96 | 90.4 | 98.6 | 91.4 | 88.7 | 78.6 | 59.6 | 94.9 | 119 | 73.4 | 118 | 99.5 | 109 | 105 | 104 | 90.2 | 96.6 | 76.5 |
| C=CC(=O)N1CCC[C@@H](n2nc(-c3ccc(Oc4ccccc4)cc3)c3c(N)ncnc32)C1 | 127 | 123 | 120 | 121 | 114 | 112 | 111 | 91.8 | 80.7 | 76.3 | 80.5 |  |  |  |  |  |  |  |  |  |  |  |  |  |  |  |  |  |  |  |  |  |  |
| CC(C)CC(=O)N[C@H](C(=O)N[C@H](C(=O)N[C@@H](CC(C)C)[C@@H](O)CC(=O)N[C@@H](C)C(=O)N[C@@H](CC(C)C)[C@@H](O)CC(=O)O)C(C)C)C(C)C | 103 | 103 | 107 | 108 | 105 | 114 | 118 | 116 | 105 | 111 | 97.9 | 108 | 109 | 121 | 109 | 97.6 | 113 | 105 | 113 | 122 | 103 | 108 | 98.1 | 99.7 | 106 | 102 | 96.6 | 103 | 107 | 111 | 102 | 97.6 | 96 |
| C/C=C1\C2C=C(C)CC1(N)c1ccc(=O)[nH]c1C2 (stereo not given) | 102 | 108 | 107 | 107 | 109 | 109 | 107 | 104 | 96.3 | 106 | 79.2 | 105 | 110 | 112 | 106 | 113 | 101 | 98.3 | 91.2 | 98.9 | 98.7 | 92.8 | 110 | 98 | 108 | 102 | 94.9 | 107 | 98.4 | 97.1 | 88.5 | 95.2 | 90.9 |
| S=P(N1CC1)(N1CC1)N1CC1 | 110 | 106 | 113 | 107 | 112 | 105 | 108 | 97.4 | 88.5 | 99.4 | 85.3 | 98.3 | 99 | 106 | 102 | 99.8 | 102 | 108 | 104 | 104 | 94.9 | 88.2 | 99.6 | 108 | 103 | 91.7 | 101 | 101 | 96.2 | 93.1 | 86.9 | 89.9 | 76.3 |
| CNC1CCC(N(Cc2cccc(-c3ccncc3)c2)C(=O)c2sc3c(F)ccc(F)c3c2Cl)CC1 (stereo not given) | 87.6 | 101 | 106 | 105 | 107 | 109 | 104 | 114 | 101 | 99.3 | 71.4 | 92.9 | 109 | 98.2 | 104 | 110 | 105 | 108 | 100 | 106 | 94.9 | 72.8 | 92.8 | 102 | 105 | 105 | 97.5 | 105 | 106 | 94.3 | 103 | 93.6 | 55.3 |
| CN1CCCN=C1/C=C/c1cccs1.O=C(O)c1cc2ccccc2c(Cc2c(O)c(C(=O)O)cc3ccccc23)c1O | 114 | 117 | 118 | 122 | 112 | 111 | 111 | 111 | 103 | 25 | 10.2 | 109 | 121 | 114 | 122 | 114 | 114 | 105 | 114 | 110 | 115 | 101 | 114 | 123 | 115 | 115 | 120 | 115 | 108 | 112 | 114 | 98.2 | 82.9 |
| COc1cc2c(cc1OC)CC(=O)N(CCCN(C)C[C@H]1Cc3cc(OC)c(OC)cc31)CC2.Cl | 108 | 111 | 111 | 108 | 104 | 120 | 113 | 114 | 116 | 108 | 106 | 97.5 | 106 | 115 | 113 | 109 | 111 | 110 | 102 | 109 | 104 | 106 | 104 | 104 | 114 | 115 | 113 | 111 | 102 | 97.3 | 108 | 98.1 | 100 |
| CNC(=O)c1ccc(N2C(=S)N(c3ccc(C#N)c(C(F)(F)F)c3)C(=O)C23CCC3)cc1F | 86.5 | 92.3 | 101 | 9.68 | 108 | 101 | 97 | 103 | 103 | 107 | 102 | 88 | 86.8 | 101 | 13.1 | 94.9 | 98 | 102 | 99.6 | 99.3 | 103 | 106 | 75.4 | 87.7 | 88.6 | 24.7 | 97.7 | 96.6 | 92.7 | 91 | 97.8 | 96.7 | 98.5 |
| COc1ccc(-n2nc(C(N)=O)c3c2C(=O)N(c2ccc(N4CCCCC4=O)cc2)CC3)cc1 | 118 | 121 | 125 | 132 | 132 | 127 | 141 | 124 | 16 | 15.2 | 14.8 |  |  |  |  |  |  |  |  |  |  |  |  |  |  |  |  |  |  |  |  |  |  |
| O=C(c1ccc(Nc2nccc(-c3cc4ccccc4s3)n2)cc1)N1CCC(N2CCCC2)CC1 | 115 | 109 | 116 | 112 | 120 | 107 | 103 | 98.8 | 99.5 | 67.7 | 3.26 | 117 | 125 | 119 | 117 | 114 | 107 | 112 | 112 | 105 | 82.9 | 6.91 | 113 | 119 | 115 | 119 | 123 | 106 | 113 | 107 | 101 | 63.8 | 7 |
| Cc1cn(-c2cc(NC(=O)c3ccc(C)c(Nc4nccc(-c5cccnc5)n4)c3)cc(C(F)(F)F)c2)cn1 | 102 | 101 | 108 | 109 | 110 | 107 | 106 | 12 | 13.1 | 9.96 | 10.8 | 112 | 111 | 114 | 117 | 113 | 112 | 110 | 43.6 | 11.4 | 12.1 | 11 | 103 | 113 | 114 | 112 | 115 | 113 | 114 | 23.9 | 24.5 | 26.7 | 22.7 |
| O=C(Nc1c(Cl)cncc1Cl)c1ccc(OC(F)F)c(OCC2CC2)c1 | 101 | 112 | 118 | 105 | 114 | 113 | 111 | 115 | 117 | 108 | 104 | 103 | 116 | 111 | 115 | 122 | 121 | 119 | 106 | 110 | 106 | 106 | 96.8 | 107 | 100 | 108 | 106 | 108 | 114 | 111 | 113 | 109 | 105 |
| O=C(Nc1cc2cc[nH]c2cn1)c1ccccc1 | 95 | 90.7 | 109 | 112 | 113 | 109 | 111 | 106 | 5.06 | 1.54 | -0.599 | 93.1 | 113 | 111 | 114 | 119 | 130 | 109 | 104 | 90.4 | 45.8 | 1.1 | 79.4 | 101 | 102 | 104 | 99.7 | 102 | 103 | 101 | 58.2 | 7.54 | 1.18 |
| O=c1[nH]c2ccccc2n1C1CCN(Cc2ccc(-c3nc4cc5nc[nH]c5cc4nc3-c3ccccc3)cc2)CC1 | 109 | 125 | 116 | 125 | 117 | 132 | 115 | 102 | 105 | 109 | 115 | 111 | 102 | 110 | 111 | 115 | 114 | 106 | 85.4 | 104 | 109 | 106 | 121 | 114 | 114 | 121 | 114 | 110 | 105 | 91.1 | 103 | 96 | 107 |
| NC(=O)c1ccc(I)c([N+](=O)[O-])c1 | 117 | 126 | 124 | 115 | 130 | 139 | 133 | 134 | 132 | 128 | 125 |  |  |  |  |  |  |  |  |  |  |  |  |  |  |  |  |  |  |  |  |  |  |
